From patent US6835733B2, “Tropane linked benzofuran derivatives” (Eli Lilly and Company, priority 1999, dated 2004) come the findings set out here.

Broadly, the melting point is the temperature of the solid-liquid transition.

Where a name gives a salt, the structure may show the parent alone.

On to `COc1cccc2sc(C3=CC4CCC(C3)N4C[C@H](O)COc3cccc4occc34)cc12` (stereo partly shown) (as salt: oxalate), for which the melting point is 201 to 204 °C (dec.).
